Measurements taken from US8431706B2, “1,2,3,4-tetrahydroqinoline derivative useful for the treatment of diabetes” (Eli Lilly and Company, priority 2011, dated 2013).

What was measured:
Male Balb/c mice = assay: Intraperitoneal Glucose Tolerance Test (IPGTT); type: in vivo, mouse
Protocol: To examine the ability of exemplified the compound to activate GPR40 in-vivo resulting in anti-diabetic efficacy, i.e. reduction in plasma glucose levels, a 4-day intraperitoneal glucose tolerance test (ipGTT) study is completed, and the data is shown for the compound tested below.
Male Balb/c (Albino mice) mice (8-9 weeks of age) are single housed, and fed with normal rodent chow diet and water ad libitum. Animals are weighed; randomized by body weight; and their daily body weights are recorded Animals are dosed once per day orally for three days using a formulation carrying methylcellulose and tween-80. On the night before Day 4, animals are fasted overnight. On the morning of Day 4, animals are dosed orally with compound or vehicle alone 60 minutes prior to the glucose tolerance test (glucose 2 g/kg, i.p.). Blood glucose levels are determined from tail bleeds taken at 0, 3, 7, 15, 30, and 60 min after glucose challenge. The blood glucose excursion profile from t=0 to t=60 min is used to integrate an area under the curve (AUC) for each treatment. Percent lowering in glucose is calculated from the AUC data of the compound with respect to the AUC of vehicle group. The test compound is orally administered at 0.3, 1.0, 3.0, 10, or 30 mg/kg, and a positive control (3-[4-(2-methyl-benzyloxy)-phenyl]-hex-4-ynoic acid, see WO2005086661.) is administered at 10 mg/kg. […] Glucose levels are lowered at the 15, 30, and 60 minute time points for the positive control. The ED50 for this compound based on AUCs for glucose lowering is 1.0 mg/kg.

human GPR40 = human GPR40 (Homo sapiens, UniProt O14842); conditions: maximal response compared to the natural ligand, linoleic acid
PPARα = molecular target: T1, PPARα (Homo sapiens, UniProt Q07869); assay: PPARα binding assay (SPA)
T1 construct: made in house; host or cells: HEK293 (cell lysates)
T1 sequence (Q07869 1-468): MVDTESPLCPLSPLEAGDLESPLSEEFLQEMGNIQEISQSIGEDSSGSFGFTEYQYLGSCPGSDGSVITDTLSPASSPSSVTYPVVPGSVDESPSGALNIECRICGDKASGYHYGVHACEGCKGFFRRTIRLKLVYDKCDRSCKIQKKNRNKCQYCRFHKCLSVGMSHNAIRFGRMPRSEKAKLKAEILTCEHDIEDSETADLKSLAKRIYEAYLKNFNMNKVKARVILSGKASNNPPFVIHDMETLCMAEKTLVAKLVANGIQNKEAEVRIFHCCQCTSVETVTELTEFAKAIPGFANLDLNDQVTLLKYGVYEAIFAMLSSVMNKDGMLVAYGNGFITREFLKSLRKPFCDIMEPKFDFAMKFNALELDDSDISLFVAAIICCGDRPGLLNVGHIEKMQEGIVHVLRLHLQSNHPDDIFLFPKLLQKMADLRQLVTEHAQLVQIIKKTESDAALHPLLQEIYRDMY
T1 sequence (P19793 1-462 partner): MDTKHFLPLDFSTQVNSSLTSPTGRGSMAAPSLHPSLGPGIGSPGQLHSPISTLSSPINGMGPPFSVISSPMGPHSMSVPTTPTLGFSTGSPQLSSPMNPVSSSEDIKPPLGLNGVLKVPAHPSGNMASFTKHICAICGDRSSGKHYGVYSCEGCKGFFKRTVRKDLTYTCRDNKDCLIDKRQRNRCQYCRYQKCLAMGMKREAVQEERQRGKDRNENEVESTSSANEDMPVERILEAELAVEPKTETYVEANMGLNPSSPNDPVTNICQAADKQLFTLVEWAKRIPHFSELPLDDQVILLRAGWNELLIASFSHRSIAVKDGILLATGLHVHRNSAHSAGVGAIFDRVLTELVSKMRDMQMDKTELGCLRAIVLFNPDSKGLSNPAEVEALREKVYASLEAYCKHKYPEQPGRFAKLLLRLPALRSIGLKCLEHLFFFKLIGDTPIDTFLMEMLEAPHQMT
Protocol: Because GPR40 is known to be activated by ligands to PPARγ, the exemplified compound is examined in PPARα, PPARδ, and PPARγ binding and functional assays to determine the selectivity of the compound of Example 1 for GPR40.
Binding affinities of the compound for the PPAR α, δ, and γ receptors are assessed using Scintillation Proximity Assay (SPA) technology. Biotinylated oligonucleotide Direct Repeat 2 (DR2) is used for binding the receptors to Yttrium silicate streptavidin-coated SPA beads. PPAR α, δ, γ and retinoid X receptor (RXR) α are over expressed in HEK293 cells, and cell lysates containing the specific receptors are used in the individual assays. The DR2 is attached to the SPA beads over a 30 minute period in a binding buffer containing 10 mM HEPES pH 7.8, 80 mM KCl, 0.5 mM MgCl2, 1 mM DTT, 0.5% 3[(3-cholamidopropyl)dimethylammonio]-propanesulfonic acid (CHAPS), and 4.4% bovine serum. […] Non-specific binding is determined in the presence of 10,000 nM of the unlabeled PPAR α/δ dual agonist reference compound for the alpha and delta receptor assays and the PPARγ agonist reference compound for the gamma receptor assay. The binding reaction (100 μl per well in a 96 well [Costar 3632] plate) is incubated for 10 h and counted disintegration per minutes (dpm) on a Wallac Microbeta. Receptor binding affinity (IC50) for the compound is determined by fitting an 11 point concentration-response curve with a 4-parameter logistic equation. Ki is determined from the IC50 using the Cheng-Prussoff equation and Kd determined by saturation binding. […]

human GPR40, sequence (O14842 whole entry): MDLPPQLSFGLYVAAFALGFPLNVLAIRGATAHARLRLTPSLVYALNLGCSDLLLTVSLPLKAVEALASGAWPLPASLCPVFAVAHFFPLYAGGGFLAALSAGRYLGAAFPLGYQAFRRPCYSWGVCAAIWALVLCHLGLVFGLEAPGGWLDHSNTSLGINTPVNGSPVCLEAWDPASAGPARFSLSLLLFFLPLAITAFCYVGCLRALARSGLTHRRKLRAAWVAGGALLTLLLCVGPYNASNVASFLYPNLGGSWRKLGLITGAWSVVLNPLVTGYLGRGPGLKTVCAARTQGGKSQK

Percent efficacy (human GPR40): 84+/−24%
binding (PPARα; concentrations up to 10 μM): no binding is detected
IC50 (PPARα; tested up to 30 μM, read-out: relative IC50): > 10 µM
PPAR binding values (PPARα; with 10 μM concentrations of test compound): greater than 1000 nM
Structure (SMILES): CC#C[C@@H](CC(=O)O)c1ccc(OCc2ccc(CN3CCCc4cccc(OC)c43)s2)cc1 [Example 1, (3S)-3-[4-[[5-[(8-Methoxy-3,4-dihydro-2H-quinolin-1-yl)methyl]-2-thienyl]methoxy]phenyl]hex-4-ynoic acid]
Glucose levels compared to vehicle control, 30 and 60 minute time points (Male Balb/c mice; 1.0, 3.0, 10 and 30 mg/kg oral doses): significantly lowered
Glucose levels compared to vehicle control, 15 minute time point (Male Balb/c mice; 3, 10 and 30 mg/kg oral doses): significantly lowered
ED50 (Male Balb/c mice; Mus musculus, oral, once per day, 4 days, glucose 2 g/kg i.p., AUC t=0 to 60 min, read-out: ED50 based on AUCs for glucose lowering): 1 mg/kg
